Results published in BindingDB's records for doi:10.1111/cbdd.12458 (Pontificia Universidad Catolica De Chile, 2015).

Assays:
[1] = target: T1, Amine oxidase [flavin-containing] A (Rattus norvegicus, UniProt P21396); test: Monoamine Oxidase Inhibition Assay
T1 sequence (P21396 whole entry): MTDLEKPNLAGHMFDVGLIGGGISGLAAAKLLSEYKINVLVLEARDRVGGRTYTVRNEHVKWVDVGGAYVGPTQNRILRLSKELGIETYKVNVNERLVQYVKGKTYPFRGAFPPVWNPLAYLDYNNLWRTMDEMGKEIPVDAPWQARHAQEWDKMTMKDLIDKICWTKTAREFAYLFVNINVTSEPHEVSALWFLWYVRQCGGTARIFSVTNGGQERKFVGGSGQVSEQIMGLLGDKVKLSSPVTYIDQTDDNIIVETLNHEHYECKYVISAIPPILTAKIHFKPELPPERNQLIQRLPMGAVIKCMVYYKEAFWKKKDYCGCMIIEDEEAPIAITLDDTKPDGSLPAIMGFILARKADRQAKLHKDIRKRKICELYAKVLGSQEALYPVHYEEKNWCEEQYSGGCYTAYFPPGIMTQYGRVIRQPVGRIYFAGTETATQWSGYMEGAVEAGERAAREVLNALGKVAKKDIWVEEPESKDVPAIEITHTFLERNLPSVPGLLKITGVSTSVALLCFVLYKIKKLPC
Procedure: (§1) Briefly, a crude rat brain mitochondrial suspension (male Sprague Dawley rats weighing 180 220 g, killed by decapitation) was used as protein source. Serotonin(5-HT, 100 µM) and 4-dimethylaminophenethylamine (DMAPEA, 5 µM) were used as selective substrates for MAO-A and MAO-B, respectively. The reaction mixtures were analyzed with a Merck-Hitachi HPLC (Tokyo, Japan), employing a C18 reverse phase column (Lichrospher 250 9 4.6 mm, 5 µm) and an amperometric detector (Merck Recipe L3500A). Tetrahydrofuran and acetonitrile (Merck) were used as eluents.

[2] = target: T2, Amine oxidase [flavin-containing] B (Rattus norvegicus, UniProt P19643); test: Monoamine Oxidase Inhibition Assay
T2 sequence (P19643 whole entry): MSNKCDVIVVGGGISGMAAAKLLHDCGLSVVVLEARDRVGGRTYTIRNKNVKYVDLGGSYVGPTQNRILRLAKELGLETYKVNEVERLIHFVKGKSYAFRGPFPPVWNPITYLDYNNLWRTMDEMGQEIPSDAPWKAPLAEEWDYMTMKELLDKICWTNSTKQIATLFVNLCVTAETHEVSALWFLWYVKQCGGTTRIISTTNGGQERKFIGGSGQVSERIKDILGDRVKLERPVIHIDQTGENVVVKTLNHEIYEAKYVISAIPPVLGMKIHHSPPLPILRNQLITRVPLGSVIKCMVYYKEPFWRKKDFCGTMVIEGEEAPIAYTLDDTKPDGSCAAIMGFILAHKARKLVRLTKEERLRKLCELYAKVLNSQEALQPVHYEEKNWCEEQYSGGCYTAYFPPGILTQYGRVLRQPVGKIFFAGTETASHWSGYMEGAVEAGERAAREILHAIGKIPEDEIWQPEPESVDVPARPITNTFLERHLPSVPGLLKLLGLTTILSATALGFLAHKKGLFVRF
Procedure: as §1

SMILES	IC50 [1]	IC50 [2]
COc1ccc(OC)c(/C=C2\Oc3cccc(OC)c3C2=O)c1 [(Z)-2-(2,5-Dimethoxybenzylidene)-4-methoxybenzofuran-3(2H)-one (4a)]	> 100 µM	17.8 µM
COc1ccc(OC)c(/C=C/C(=O)c2c(O)cccc2OC)c1 [(E)-3-(2,5-Dimethoxyphenyl)-1-(2-hydroxy-6-methoxyphenyl)prop-2-en-1-one (3a)]	> 100 µM	10.9 µM
COc1cc(/C=C/C(=O)c2c(O)cccc2OC)c(OC)cc1Br [(E)-3-(4-Bromo-2,5-dimethoxyphenyl)-1-(2-hydroxy-6-methoxyphenyl)prop-2-en-1-one (3d)]	> 100 µM	6.1 µM
COc1ccc2c(c1)C(=O)/C(=C/c1cccc(OC)c1OC)O2 [(Z)-2-(2,3-Dimethoxybenzylidene)-5-methoxybenzofuran-3(2H)-one (4g)]	> 100 µM	11.6 µM
COc1ccc2c(c1)C(=O)/C(=C/c1cc(OC)c(Br)cc1OC)O2 [(Z)-2-(4-Bromo-2,5-dimethoxybenzylidene)-5-methoxybenzofuran-3(2H)-one (4h)]	> 100 µM	13.5 µM
COc1ccc(O)c(C(=O)/C=C/c2cccc(OC)c2OC)c1 [(E)-3-(2,3-Dimethoxyphenyl)-1-(2-hydroxy-5-methoxyphenyl)prop-2-en-1-one (3g)]	> 100 µM	6.8 µM
COc1cc(/C=C2\Oc3cccc(OC)c3C2=O)c(OC)cc1Br [(Z)-2-(4-Bromo-2,5-dimethoxybenzylidene)-4-methoxybenzofuran-3(2H)-one (4d)]	> 100 µM	26.3 µM
COc1ccc(O)c(C(=O)/C=C/c2cc(OC)c(Br)cc2OC)c1 [(E)-3-(4-Bromo-2,5-dimethoxyphenyl)-1-(2-hydroxy-5-methoxyphenyl)prop-2-en-1-one (3h)]	> 100 µM	2.8 µM
